Where a SMILES comes first, the peptide text is derived from it. [ ]: non-standard residue; d: D form. ξ: configuration not given here. Ile(3ξ) = CCC(C)[C@H](N)C(=O)O; Thr(3ξ) = CC(O)[C@H](N)C(=O)O
Target: Caspase-8 (Homo sapiens, UniProt Q14790)
Test: Enzyme Inhibition Assay
Procedure: The caspase enzymatic activity was determined by measuring the accumulation of a fluorogenic product. All assays were prepared in 96-well format. Recombinant caspase enzyme was first assayed to determine the optimal concentration for each experiment. Peptide inhibitors with known IC50 values were tested together with the compounds as a control for each caspase assay. […] Compounds were tested in duplicate and IC50 curves were calculated for all inhibitors assayed.

Caspase-8, sequence (Q14790 217-374 limits assumed): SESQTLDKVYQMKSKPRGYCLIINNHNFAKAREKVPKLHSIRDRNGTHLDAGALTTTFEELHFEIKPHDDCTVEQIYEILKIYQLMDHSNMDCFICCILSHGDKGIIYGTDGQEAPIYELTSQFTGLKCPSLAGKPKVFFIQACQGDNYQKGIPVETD
Caspase-8, sequence (Q14790 385-479 limits assumed): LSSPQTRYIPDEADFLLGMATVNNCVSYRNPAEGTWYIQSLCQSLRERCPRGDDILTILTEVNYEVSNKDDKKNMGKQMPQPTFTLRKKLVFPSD

IC50: 4.2 nM
SMILES: CCC(C)[C@H](NC(C)=O)C(=O)N[C@@H](CCC(=O)O)C(=O)N[C@H](C(=O)N[C@H](C=O)CC(=O)O)C(C)O (stereo partly drawn) [(4S)-4-{[(1S)-1-{[(2S)-1-carboxy-3-oxopropan-2-yl]carbamoyl}-2-hydroxypropyl]carbamoyl}-4-[(2S)-2-acetamido-3-methylpentanamido]butanoic acid] (Ac-[Ile(3ξ)]E[Thr(3ξ)]D-aldehyde)

From BindingDB's records for doi:10.1021/jm900135r (Washington University, 2009)
